Measurements reported in patent publication US9914750B2, “Synthetic peptides and peptide mimetics” (University of Louisville Research Foundation, priority 2007, dated 2018).
No end group written: not given here.

Columns and labels:
[1] = test system: Aggregatibacter (Actinobacillus) actinomycetemcomitans JP2; format: cell-based; conditions: 10 or 100 μg/ml
Description: The PSP peptides GL13, GK7 and KL11, lysozyme, LL37 or no peptide (BLK) were incubated with P. aeruginosa (FIG. 3A) or A. actinomycetemcomitans (FIG. 3B). P. aeruginosa PAO1 (10^5 cells/ml) were incubated for 2 h at 35° C. with 10 μg/ml (open bars) or 100 μg/ml (shaded bars) of each peptide. A. actinomycetemcomitans JP2 (10^5 cells/nil) were incubated for 4 h at 37° C. under reduced oxygen conditions. Bacterial cultures were diluted and plated on LB agar (Pseudomonas) or BHI agar plates (A.a., low oxygen incubation) and surviving CFUs enumerated. The data are shown as mean±SEM, P. aeruginosa: N=8−22 at 100 μg/ml, N=2−10 at 10 μg/ml. A. actinomycetemcomitans: N=3. *) P<0.0001, **) P<0.004, ***) P<0.02
Overnight cultures of bacteria were pelleted and resuspended in 10 mM sodium phosphate, pH 7.4 (10^5 CFU/ml). Diluted bacteria (100 μl) were incubated with 10 or 100 μg/ml of each peptide in 10 mM sodium phosphate, pH 7.4. P aeruginosa PAO1 were incubated for 2 h at 35° C. while A. actinomycetemcomitans JP2 were incubated for 4 h at 37° C. under reduced oxygen conditions. […]
As a second antibacterial assay, bactericidal activity was determined by incubating the peptides (10 or 100 μg/ml) with P. aeruginosa, A. actinomycetemcomitans or S. gordonii in 10 mM phosphate buffer. […]

sheep red blood cells = experiment: Hemagglutination assay; format: cell-based; conditions: PBS, absence of serum, 2 h
Description: FIG. 22: Hemagglutination of sheep red blood cells. RBCs were washed in PBS and incubated for 2 h in microtiter plates in PBS±5% fetal calf serum. Peptide concentrations were 83 μg/ml. The microtiter plate was imaged. Agglutinated red blood cells form a wide mat of cells, while non-agglutinated cells form a button shaped pellet.
Briefly, unmodified sheep erythrocytes (Cappel, M P Biomedicals, Irvine, Calif.) were washed in PBS and suspended at 1% in PBS. Diluted erythrocytes and 20 μg/ml of each peptide in PBS were mixed in polypropylene microtiter plates (120 μl per well) and incubated for 2 h at 35° C. The plates were imaged on a Kodak Image station.

[2] = test system: LPS-binding protein (LBP); experiment: Inhibition of LPS binding to LPS-binding protein (ELISA); conditions: for Inhibition (Mean ± SEM) of LPS binding to LBP: relative to polymyxin B (100% inhibition), LPS preincubated with peptide
Description: Analysis of the PSP sequence indicated three possible regions of biological activity. Initially, three peptides corresponding to the PSP sequence in these regions were designed and used in these studies. The initial step in the inflammatory cascade is the binding of LPS to LPS-binding protein. This binding was inhibited by preincubation of LPS with each of the three peptides. […] The binding of LPS to LPB was analyzed to ELISA. 0% inhibition (100% binding) was determined in the absence of inhibitors while 100% inhibition was determined in the presence of the inhibitor polymyxin B. The inhibition of each peptide is determined relative to the effect of polymyxin B.

| Compound | hemagglutination (words) (sheep red blood cells) | Inhibition (Mean ± SEM) of LPS binding to LBP [2] | other results |
| --- | --- | --- | --- |
| CC[C@H](C)[C@H](NC(=O)[C@H](CCCCN)NC(=O)[C@H](CCC(=O)O)NC(=O)[C@H](CCCCN)NC(=O)[C@H](CO)NC(=O)[C@H](CCCCN)NC(=O)[C@H](CCCNC(=N)N)NC(=O)[C@H](Cc1ccccc1)NC(=O)[C@H](Cc1ccccc1)NC(=O)[C@H](CC(=O)O)NC(=O)CNC(=O)[C@H](CC(C)C)NC(=O)[C@@H](N)CC(C)C)C(=O)NCC(=O)N[C@@H](CCCCN)C(=O)N[C@@H](CCC(=O)O)C(=O)N[C@@H](Cc1ccccc1)C(=O)N[C@@H](CCCCN)C(=O)N[C@@H](CCCNC(=N)N)C(=O)N[C@H](C(=O)N[C@H](C(=O)N[C@@H](CCC(N)=O)C(=O)N[C@@H](CCCNC(=N)N)C(=O)N[C@H](C(=O)N[C@@H](CCCCN)C(=O)N[C@@H](CC(=O)O)C(=O)N[C@@H](Cc1ccccc1)C(=O)N[C@@H](CC(C)C)C(=O)N[C@@H](CCCNC(=N)N)C(=O)N[C@@H](CC(N)=O)C(=O)N[C@@H](CC(C)C)C(=O)N[C@H](C(=O)N1CCC[C@H]1C(=O)N[C@@H](CCCNC(=N)N)C(=O)N[C@H](C(=O)N[C@@H](CCC(=O)O)C(=O)N[C@@H](CO)C(=O)O)[C@@H](C)O)C(C)C)[C@@H](C)CC)C(C)C)[C@@H](C)CC [LL37, reference compound] | did not cause hemagglutination |  | killing of A. actinomycetemcomitans [1]: 100% |
| GQIINLKASLDLL [GL13-OH, GQIINLKASLDLL] | caused hemagglutination |  |  |
| GQIINLKASLNLL-NH2 [GL13-D/N-NH2, GQIINLKASLNLL-(CONH2)] | caused hemagglutination |  |  |
| KAQEAEKLLNN [KN11] |  | 36% ± 13 |  |
| KLLNNVISK [KK9] |  | 34% ± 12 |  |
| Substance P: antibacterial cationic peptide substance P |  | −18% ± 19 | effect on LPS binding to LBP [2]: had no effect on LPS binding to LBP |
